Source: patent US11203601B2, “Tricyclic compounds as glycogen synthase kinase 3 (GSK3) inhibitors and uses thereof” (The Broad Institute, Inc., priority 2017, dated 2021)

Columns and labels:
Experiment in all cases: Carna kinome panel
Format in all cases: biochemical
Erk1 = Erk1 (Homo sapiens (Human), UniProt P27361); conditions: read-out: % Inhibition at 10 μM of the test compound
EGFR(L858R) = EGFR(L858R) (Homo sapiens (Human), UniProt P00533, L858R); conditions: read-out: % Inhibition at 10 μM of the test compound
MNK1 = MNK1 (Homo sapiens (Human), UniProt Q9BUB5); conditions: read-out: % Inhibition at 10 μM of the test compound
BLK = BLK (Homo sapiens (Human), UniProt P51451); conditions: read-out: % Inhibition at 10 μM of the test compound
PLK2 = PLK2 (Homo sapiens (Human), UniProt Q9NYY3); conditions: read-out: % Inhibition at 10 μM of the test compound
AurB = AurB (Homo sapiens (Human), UniProt Q96GD4); conditions: read-out: % Inhibition at 10 μM of the test compound
KDR = KDR (Homo sapiens (Human), UniProt P35968); conditions: read-out: % Inhibition at 10 μM of the test compound
WNK1 = WNK1 (Homo sapiens (Human), UniProt Q9H4A3); conditions: read-out: % Inhibition at 10 μM of the test compound
RON = RON (Homo sapiens (Human), UniProt Q04912); conditions: read-out: % Inhibition at 10 μM of the test compound
NPM1-ALK = NPM1-ALK (Homo sapiens (Human), UniProt P06748+Q9UM73); conditions: read-out: % Inhibition at 10 μM of the test compound
SGK = SGK (Homo sapiens (Human), UniProt O00141); conditions: read-out: % Inhibition at 10 μM of the test compound
MAP2K2_Cascade = MAP2K2_Cascade (Homo sapiens (Human), UniProt P36507); conditions: read-out: % Inhibition at 10 μM of the test compound
TNK1 = TNK1 (Homo sapiens (Human), UniProt Q13470); conditions: read-out: % Inhibition at 10 μM of the test compound
HGK = HGK (Homo sapiens (Human), UniProt O95819); conditions: read-out: % Inhibition at 10 μM of the test compound
CDC7/ASK = CDC7/ASK (Homo sapiens (Human), UniProt O00311); conditions: read-out: % Inhibition at 10 μM of the test compound
PAK4 = PAK4 (Homo sapiens (Human), UniProt O96013); conditions: read-out: % Inhibition at 10 μM of the test compound
HER4 = HER4 (Homo sapiens (Human), UniProt Q15303); conditions: read-out: % Inhibition at 10 μM of the test compound
FMS = FMS (Homo sapiens (Human), UniProt P07333); conditions: read-out: % Inhibition at 10 μM of the test compound
PKCι = PKCι (Homo sapiens (Human), UniProt P41743); conditions: read-out: % Inhibition at 10 μM of the test compound
BRSK1 = BRSK1 (Homo sapiens (Human), UniProt Q8TDC3); conditions: read-out: % Inhibition at 10 μM of the test compound
PKCβ1 = PKCβ1 (Homo sapiens (Human), UniProt P05771); conditions: read-out: % Inhibition at 10 μM of the test compound
TSSK1 = TSSK1 (Homo sapiens (Human), UniProt Q9BXA7); conditions: read-out: % Inhibition at 10 μM of the test compound
LYNa = LYNa (Homo sapiens (Human), UniProt P07948); conditions: read-out: % Inhibition at 10 μM of the test compound
RSK4 = RSK4 (Homo sapiens (Human), UniProt Q9UK32); conditions: read-out: % Inhibition at 10 μM of the test compound
ALK = ALK (Homo sapiens (Human), UniProt Q9UM73); conditions: read-out: % Inhibition at 10 μM of the test compound
JNK3 = JNK3 (Homo sapiens (Human), UniProt P53779); conditions: read-out: % Inhibition at 10 μM of the test compound
EPHA7 = EPHA7 (Homo sapiens (Human), UniProt Q15375); conditions: read-out: % Inhibition at 10 μM of the test compound
AurA = AurA (Homo sapiens (Human), UniProt O14965); conditions: read-out: % Inhibition at 10 μM of the test compound
NEK1 = NEK1 (Homo sapiens (Human), UniProt Q96PY6); conditions: read-out: % Inhibition at 10 μM of the test compound
skMLCK = skMLCK (Homo sapiens (Human), UniProt Q9H1R3); conditions: read-out: % Inhibition at 10 μM of the test compound
AKT3 = AKT3 (Homo sapiens (Human), UniProt Q9Y243); conditions: read-out: % Inhibition at 10 μM of the test compound
LYNb = LYNb (Homo sapiens (Human), UniProt P07948); conditions: read-out: % Inhibition at 10 μM of the test compound
TYK2 = TYK2 (Homo sapiens (Human), UniProt P29597); conditions: read-out: % Inhibition at 10 μM of the test compound
MINK = MINK (Homo sapiens (Human), UniProt Q8N4C8); conditions: read-out: % Inhibition at 10 μM of the test compound
MUSK = MUSK (Homo sapiens (Human), UniProt O15146); conditions: read-out: % Inhibition at 10 μM of the test compound
COT_Cascade = test system: COT_Cascade
Experimental: Briefly, a selection of compounds was screened against a panel of kinases at a single concentration of 10 μM. […] This was completed using one of two assays, depending on the kinase being examined: 1) IMAP Assay. A solution of 4× inhibitor, 4× substrate/ATP/metal solution and 2× kinase solution was prepared with assay buffer (20 mM HEPES, 0.01% Tween-20, 2 mM DTT, pH 7.4) and mixed, then incubated in 384-well black plates for 1 hour at room temperature. The IMAP binding reagent (IMAP Screening Express kit; Molecular Devices) was added to each well and incubated for 30 minutes. […] 2) Off-Chip Mobility Shift Assay (MSA). A solution of 4× inhibitor, 4× substrate/ATP/metal solution and 2× kinase solution was prepared with assay buffer (20 mM HEPES, 0.01% Triton X-100, 2 mM DTT, pH 7.5) and mixed, then incubated in 384-well plates for 1 or 5 hours depending on the kinase, at room temperature. Termination buffer (QuickScout Screening assist MSA; Carna Biosciences) was added to each well. The entire reaction mixture was then applied to a LabChip3000 system (Caliper Life Science), and the product and substrate peptide peaks were separated and quantified. […] The entire reaction mixture was then applied to a LabChip3000 system (Caliper Life Science), and the product and substrate peptide peaks were separated and quantified.

EGFR(d746-750) = EGFR(d746-750) (Homo sapiens (Human), UniProt P00533, DEL746-750); conditions: read-out: % Inhibition at 10 μM of the test compound
IKKα = IKKα (Homo sapiens (Human), UniProt O15111); conditions: read-out: % Inhibition at 10 μM of the test compound
FGR = FGR (Homo sapiens (Human), UniProt P09769); conditions: read-out: % Inhibition at 10 μM of the test compound
NDR2 = NDR2 (Homo sapiens (Human), UniProt Q9Y2H1); conditions: read-out: % Inhibition at 10 μM of the test compound
MLK1_Cascade = MLK1_Cascade (Homo sapiens (Human), UniProt P80192); conditions: read-out: % Inhibition at 10 μM of the test compound

Chain of AurA (O14965 whole entry): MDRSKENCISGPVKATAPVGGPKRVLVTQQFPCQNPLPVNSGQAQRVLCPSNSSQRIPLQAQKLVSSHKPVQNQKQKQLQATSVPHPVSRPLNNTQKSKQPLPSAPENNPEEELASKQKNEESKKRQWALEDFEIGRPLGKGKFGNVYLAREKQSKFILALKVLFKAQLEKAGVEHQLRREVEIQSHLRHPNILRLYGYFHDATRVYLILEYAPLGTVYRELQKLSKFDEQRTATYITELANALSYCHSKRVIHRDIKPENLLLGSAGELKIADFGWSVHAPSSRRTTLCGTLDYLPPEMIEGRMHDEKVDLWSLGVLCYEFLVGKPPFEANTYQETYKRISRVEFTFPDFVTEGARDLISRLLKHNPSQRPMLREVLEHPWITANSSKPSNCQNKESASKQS
Chain of TSSK1 (Q9BXA7 whole entry): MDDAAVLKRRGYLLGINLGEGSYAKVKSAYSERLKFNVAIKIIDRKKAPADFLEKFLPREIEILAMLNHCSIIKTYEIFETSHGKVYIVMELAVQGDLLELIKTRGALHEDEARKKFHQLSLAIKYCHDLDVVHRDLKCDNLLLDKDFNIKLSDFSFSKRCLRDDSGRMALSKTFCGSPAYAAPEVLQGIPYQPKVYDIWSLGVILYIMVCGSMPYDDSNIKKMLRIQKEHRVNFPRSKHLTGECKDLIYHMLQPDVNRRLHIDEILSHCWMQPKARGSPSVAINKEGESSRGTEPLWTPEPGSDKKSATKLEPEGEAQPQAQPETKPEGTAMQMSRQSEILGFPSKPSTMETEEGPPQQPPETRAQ
Chain of EGFR(d746-750) (P00533 other isoform, or with tags, fused parts or gaps del 1-668/del 746-750 limits assumed): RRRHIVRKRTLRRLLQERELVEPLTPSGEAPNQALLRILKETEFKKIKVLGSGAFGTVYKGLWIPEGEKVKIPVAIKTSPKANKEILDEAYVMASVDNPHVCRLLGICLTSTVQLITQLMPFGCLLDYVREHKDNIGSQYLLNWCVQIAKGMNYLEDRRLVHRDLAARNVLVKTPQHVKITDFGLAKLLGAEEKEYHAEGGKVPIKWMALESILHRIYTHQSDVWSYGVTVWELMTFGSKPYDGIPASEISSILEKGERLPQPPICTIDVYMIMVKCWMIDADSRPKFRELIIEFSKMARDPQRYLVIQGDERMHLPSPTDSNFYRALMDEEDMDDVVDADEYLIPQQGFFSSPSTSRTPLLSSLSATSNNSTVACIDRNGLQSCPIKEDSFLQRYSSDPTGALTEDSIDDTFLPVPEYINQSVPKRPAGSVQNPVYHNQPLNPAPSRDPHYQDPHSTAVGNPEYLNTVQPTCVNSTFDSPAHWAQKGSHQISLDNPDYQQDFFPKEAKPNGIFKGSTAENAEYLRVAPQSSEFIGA
Chain of HGK (O95819 whole entry): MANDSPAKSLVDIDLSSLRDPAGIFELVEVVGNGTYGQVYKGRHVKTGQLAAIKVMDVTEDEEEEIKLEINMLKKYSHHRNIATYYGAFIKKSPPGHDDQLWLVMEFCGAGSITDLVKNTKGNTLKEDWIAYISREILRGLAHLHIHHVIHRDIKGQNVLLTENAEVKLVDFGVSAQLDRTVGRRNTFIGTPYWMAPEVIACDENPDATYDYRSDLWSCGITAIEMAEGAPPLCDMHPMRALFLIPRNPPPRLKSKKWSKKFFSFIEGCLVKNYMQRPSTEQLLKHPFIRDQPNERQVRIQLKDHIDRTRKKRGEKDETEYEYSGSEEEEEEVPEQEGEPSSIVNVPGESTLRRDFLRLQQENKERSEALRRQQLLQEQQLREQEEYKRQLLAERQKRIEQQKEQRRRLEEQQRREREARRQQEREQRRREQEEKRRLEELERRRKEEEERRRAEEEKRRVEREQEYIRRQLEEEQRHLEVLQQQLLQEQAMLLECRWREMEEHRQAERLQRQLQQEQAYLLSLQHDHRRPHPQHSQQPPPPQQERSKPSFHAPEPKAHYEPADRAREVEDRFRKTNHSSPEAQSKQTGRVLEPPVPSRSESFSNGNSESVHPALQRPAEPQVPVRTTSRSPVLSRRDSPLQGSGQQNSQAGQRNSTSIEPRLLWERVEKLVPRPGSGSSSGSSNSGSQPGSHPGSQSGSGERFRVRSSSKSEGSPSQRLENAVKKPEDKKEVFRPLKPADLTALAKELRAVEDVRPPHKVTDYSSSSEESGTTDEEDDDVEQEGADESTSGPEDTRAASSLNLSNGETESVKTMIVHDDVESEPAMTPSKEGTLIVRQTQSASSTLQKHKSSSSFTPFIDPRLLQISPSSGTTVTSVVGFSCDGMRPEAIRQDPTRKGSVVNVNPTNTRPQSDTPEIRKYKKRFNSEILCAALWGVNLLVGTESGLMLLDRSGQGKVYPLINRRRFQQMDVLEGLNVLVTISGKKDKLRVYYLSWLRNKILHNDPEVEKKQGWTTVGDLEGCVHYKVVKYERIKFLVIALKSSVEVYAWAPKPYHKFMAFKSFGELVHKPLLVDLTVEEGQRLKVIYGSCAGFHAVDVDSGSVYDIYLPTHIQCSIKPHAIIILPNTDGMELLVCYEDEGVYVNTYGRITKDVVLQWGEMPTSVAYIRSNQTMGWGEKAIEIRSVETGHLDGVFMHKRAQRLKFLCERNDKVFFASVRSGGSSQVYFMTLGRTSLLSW
Chain of ALK (Q9UM73 19-1620): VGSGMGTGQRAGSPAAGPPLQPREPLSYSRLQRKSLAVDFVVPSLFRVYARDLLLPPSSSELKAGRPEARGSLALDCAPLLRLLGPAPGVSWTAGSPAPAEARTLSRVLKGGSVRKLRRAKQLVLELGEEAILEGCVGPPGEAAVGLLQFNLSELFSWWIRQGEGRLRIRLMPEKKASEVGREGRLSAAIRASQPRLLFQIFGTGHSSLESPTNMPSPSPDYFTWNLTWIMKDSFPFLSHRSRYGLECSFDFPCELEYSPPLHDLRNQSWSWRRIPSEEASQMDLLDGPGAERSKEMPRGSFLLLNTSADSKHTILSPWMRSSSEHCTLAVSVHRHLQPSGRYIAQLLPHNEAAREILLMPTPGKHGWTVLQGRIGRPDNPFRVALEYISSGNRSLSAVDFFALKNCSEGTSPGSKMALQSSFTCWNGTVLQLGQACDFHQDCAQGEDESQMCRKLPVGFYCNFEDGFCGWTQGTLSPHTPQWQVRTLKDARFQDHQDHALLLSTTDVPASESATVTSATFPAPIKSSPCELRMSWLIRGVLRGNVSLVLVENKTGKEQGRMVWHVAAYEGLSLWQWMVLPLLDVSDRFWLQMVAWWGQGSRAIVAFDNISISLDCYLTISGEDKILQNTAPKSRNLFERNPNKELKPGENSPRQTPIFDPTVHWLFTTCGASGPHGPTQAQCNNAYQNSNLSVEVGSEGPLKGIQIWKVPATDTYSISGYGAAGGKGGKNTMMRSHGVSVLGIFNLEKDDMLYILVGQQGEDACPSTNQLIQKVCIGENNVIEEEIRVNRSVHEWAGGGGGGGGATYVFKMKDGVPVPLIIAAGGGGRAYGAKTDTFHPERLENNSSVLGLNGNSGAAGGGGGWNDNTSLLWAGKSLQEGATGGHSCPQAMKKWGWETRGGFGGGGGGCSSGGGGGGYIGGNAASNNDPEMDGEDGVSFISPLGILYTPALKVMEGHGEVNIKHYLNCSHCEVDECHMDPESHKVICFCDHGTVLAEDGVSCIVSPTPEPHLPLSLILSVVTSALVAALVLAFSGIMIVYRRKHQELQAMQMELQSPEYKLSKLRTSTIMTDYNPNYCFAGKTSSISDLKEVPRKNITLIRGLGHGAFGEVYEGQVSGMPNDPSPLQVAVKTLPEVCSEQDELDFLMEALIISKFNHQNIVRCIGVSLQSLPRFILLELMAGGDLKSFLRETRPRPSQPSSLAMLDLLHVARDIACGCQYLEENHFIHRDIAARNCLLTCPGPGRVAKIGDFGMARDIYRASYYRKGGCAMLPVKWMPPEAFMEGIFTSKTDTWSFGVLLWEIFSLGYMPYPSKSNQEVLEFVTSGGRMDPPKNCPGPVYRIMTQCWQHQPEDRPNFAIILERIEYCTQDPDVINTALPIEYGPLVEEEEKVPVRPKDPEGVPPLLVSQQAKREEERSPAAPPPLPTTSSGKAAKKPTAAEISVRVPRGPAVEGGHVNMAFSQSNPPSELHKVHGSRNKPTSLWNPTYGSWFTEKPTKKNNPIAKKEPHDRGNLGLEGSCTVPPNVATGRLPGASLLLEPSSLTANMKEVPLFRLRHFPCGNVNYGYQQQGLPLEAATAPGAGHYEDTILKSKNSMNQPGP
Chain of FGR (P09769 whole entry): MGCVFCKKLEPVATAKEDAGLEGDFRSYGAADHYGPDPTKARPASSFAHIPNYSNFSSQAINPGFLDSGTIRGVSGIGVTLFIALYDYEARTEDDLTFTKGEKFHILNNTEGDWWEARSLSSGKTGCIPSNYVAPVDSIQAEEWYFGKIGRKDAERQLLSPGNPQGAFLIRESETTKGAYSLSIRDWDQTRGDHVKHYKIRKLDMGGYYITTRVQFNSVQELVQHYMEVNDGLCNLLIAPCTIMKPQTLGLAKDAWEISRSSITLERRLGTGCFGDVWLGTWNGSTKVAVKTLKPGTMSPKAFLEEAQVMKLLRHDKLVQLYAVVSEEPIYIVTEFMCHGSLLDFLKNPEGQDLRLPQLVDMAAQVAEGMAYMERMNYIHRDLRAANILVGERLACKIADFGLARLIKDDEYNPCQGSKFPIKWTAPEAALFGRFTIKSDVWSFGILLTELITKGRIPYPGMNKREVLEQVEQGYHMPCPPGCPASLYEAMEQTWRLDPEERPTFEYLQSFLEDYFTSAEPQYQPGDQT
Chain of MAP2K2_Cascade (P36507 whole entry): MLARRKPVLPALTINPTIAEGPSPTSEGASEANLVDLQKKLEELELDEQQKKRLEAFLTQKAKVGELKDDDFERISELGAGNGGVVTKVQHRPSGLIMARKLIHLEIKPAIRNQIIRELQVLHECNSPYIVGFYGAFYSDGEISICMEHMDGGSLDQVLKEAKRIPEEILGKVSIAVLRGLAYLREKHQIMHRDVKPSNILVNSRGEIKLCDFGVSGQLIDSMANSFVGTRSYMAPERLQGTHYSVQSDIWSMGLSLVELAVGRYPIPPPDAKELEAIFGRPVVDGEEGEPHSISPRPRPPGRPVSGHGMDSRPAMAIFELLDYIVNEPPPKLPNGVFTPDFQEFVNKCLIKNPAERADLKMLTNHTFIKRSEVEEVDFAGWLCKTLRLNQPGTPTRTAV

SMILES: CCC1(c2ccccc2)C2=C(CC(C)(C)CC2=O)Nc2ncsc21 (centres unmarked) [Compound 1, 9-Ethyl-6,6-dimethyl-9-phenyl-5,6,7,9-tetrahydrothiazolo[4,5-b]quinolin-8(4H)-one]
- inhibition at 10 µM (Erk1): 5.6%
- inhibition at 10 µM (EGFR(L858R)): 22.2%
- inhibition at 10 µM (MNK1): -3.4%
- inhibition at 10 µM (BLK): 5%
- inhibition at 10 µM (PLK2): 1.7%
- inhibition at 10 µM (AurB): -0.4%
- inhibition at 10 µM (KDR): 0.2%
- inhibition at 10 µM (WNK1): -2.1%
- inhibition at 10 µM (RON): -3.9%
- inhibition at 10 µM (NPM1-ALK): -7.5%
- inhibition at 10 µM (SGK): -1.7%
- inhibition at 10 µM (MAP2K2_Cascade): 6.4%
- inhibition at 10 µM (TNK1): 11.7%
- inhibition at 10 µM (HGK): 0.4%
- inhibition at 10 µM (CDC7/ASK): -9.1%
- inhibition at 10 µM (PAK4): 17%
- inhibition at 10 µM (HER4): -4%
- inhibition at 10 µM (FMS): 0.3%
- inhibition at 10 µM (PKCι): -2.7%
- inhibition at 10 µM (BRSK1): -12.9%
- inhibition at 10 µM (PKCβ1): -7.4%
- inhibition at 10 µM (TSSK1): -5%
- inhibition at 10 µM (LYNa): 6%
- inhibition at 10 µM (RSK4): -4.6%
- inhibition at 10 µM (ALK): -3.1%
- inhibition at 10 µM (JNK3): 3.1%
- inhibition at 10 µM (EPHA7): 33.9%
- inhibition at 10 µM (AurA): 0.4%
- inhibition at 10 µM (NEK1): 7.5%
- inhibition at 10 µM (skMLCK): 9.7%
- inhibition at 10 µM (AKT3): -4.5%
- inhibition at 10 µM (LYNb): 0.8%
- inhibition at 10 µM (TYK2): -18.9%
- inhibition at 10 µM (MINK): 1.5%
- inhibition at 10 µM (MUSK): 0%
- % Inhibition at 10 μM of the test compound (COT_Cascade): −1.5%
- inhibition at 10 µM (EGFR(d746-750)): -6.1%
- inhibition at 10 µM (IKKα): -1.6%
- inhibition at 10 µM (FGR): 10.6%
- inhibition at 10 µM (NDR2): -1.2%
- inhibition at 10 µM (MLK1_Cascade): 7.5%
